What is called IC50 is the concentration that gives 50% inhibition.

The test system of the test is human PCSK9. The test is described as follows: Cell Free PCSK9 Assay (PCSK9-luciferase mRNA translation in HeLa lysate). In kind it is biochemical. The note with it: PCSK9-luciferase RNA, 30° C. for 45 minutes, top concentration 100 μM. As to the method: As defined herein inhibition of translation of PCSK9 mRNA to PCSK9 protein is determined by the “Cell Free PCSK9 Assay” provided herein in the specification. This “Cell Free PCSK9 Assay” is specific to the production of PCSK9 protein from PCSK9 mRNA and therefore detects inhibitors of this translational process rather than other mechanisms by which PCSK9 protein may be reduced.
In order to eliminate the permeability barrier inherent to the WT7 cell-based assays a cell-free system was also established to assess compound activitiy. A sequence containing the full length human PCSK9 (NCBI reference identifier, NM_174936.3, where coding sequence start annotated at position 363) along with 84 additional 3′ nucleotides, comprising a V5 tag and polylinker followed by an in frame modified firefly luciferase reporter (corresponding to nucleotide positions 283-1929 of pGL3, GenBank reference identifier JN542721.1) was cloned into the pT7CFE1 expression vector (ThermoScientific). The construct was then in-vitro transcribed using the MEGAscript T7 Kit (Life Technologies) and RNA subsequently purified incorporating the MEGAclear Kit (Life Technologies) according to manufacturer's protocols. HeLa cell lysates were prepared following the protocols described by Mikami (reference is Cell-Free Protein Synthesis Systems with Extracts from Cultured Human Cells, S. Mikami, T. Kobayashi and H. Imataka; from Methods in Molecular Biology, vol. 607, pages 43-52, Y. Endo et al. (eds.), Humana Press, 2010) with the following modifications. Cells were grown in a 20 L volume of CD293 medium (Gibco 11765-054) with Glutamax increased to 4 mM, penicillin at 100 U/mL and other additions as previously described by Mikami. Growth was in a 50 L wavebag at a rocker speed of 25 rpm and angle 6.1 with 5% CO2 and 0.2 LPM flow rate with cells harvested at a density of 2-2.5e6/mL. Lysates additionally contained 1 tablet of Roche cOmplete-EDTA protease inhibitors per 50 mL with tris(2-carboxyethyl)phosphine (Biovectra) substituted for dithiothreitol, and were clarified by an additional final centrifugation at 10,000 rpm in a Sorvall SS34 rotor at 4° C. for 10 minutes. Compound screening was performed in 384-well plates in an eleven point, 0.5 log dilution format at a top test compound concentration of 100 μM in a final volume of 0.5% DMSO. In additional to these test compound conditions each screening plate also included wells that contained 100 μM of compound example 16 (as depicted in WO2014170786; N-(3-chloropyridin-2-yl)-N-[(3R)-piperidin-3-yl]-4-(3H-[1,2,3]triazolo[4,5-b]pyridin-3-yl)benzamide) as a positive assay control defined as high percent effect, HPE, as well as wells containing media in 0.5% DMSO as a negative treatment control defined as zero percent effect, ZPE. Compounds were incubated at 30° C. for 45 minutes in a solution containing 0.1 μg of purified, in-vitro transcribed RNA together with the cell-free reaction mixture (consisting of 1.6 mM Mg and 112 mM K salts, 4.6 mM tris(2-carboxyethyl)phosphine (Biovectra), 5.0 μL HeLa lysate, 0.2 μL RNAsin (Promega) and 1.0 μL energy mix (containing 1.25 mM ATP (Sigma), 0.12 mM GTP (Sigma), 20 mM creatine phosphate (Santa Cruz), 60 μg/mL creatine phosphokinase (Sigma), 90 μg/mL tRNA (Sigma) and the 20 amino acids (Life Technologies) at final concentrations described by Mikami) and brought up in water to a final volume of 10 μL in water. Upon assay completion 1 μL from each reaction solution was removed and transferred to a second 384-well Optiplate (Perkin Elmer) containing 24 μL of SteadyGlo (Promega) and signal intensity was measured on the Envision (Perkin Elmer) using the enhanced luminescence protocol. To determine compound IC50 the data for HPE and ZPE control wells were first analyzed and the mean, standard deviation and Z prime calculated for each plate. The test compound data were converted into percent effect, using the ZPE and HPE controls as 0% and 100% activity, respectively, applying Equation 1 above. […]
Take `CCOC(=O)O[C@@H](C)n1nnnc1-c1c(-c2ccc(C(=O)N(c3ncccc3C)[C@@H]3CCCNC3)cc2)cnn1C` [Example 5a, ethyl (S)-1-{5-[1-methyl-4-(4-{(3-methylpyridin-2-yl)[(3R)-piperidin-3-yl]carbamoyl}phenyl)-1H-pyrazol-5-yl]-1H-tetrazol-1-yl}ethyl carbonate]: half-maximal inhibition (IC50) required 8.2 µM.

Take `CCOC(=O)O[C@@H](C)n1nnnc1-c1c(-c2ccc(C(=O)N(c3ncccc3Cl)[C@@H]3CCCNC3)nc2)cnn1C` [Example 10, ethyl (S)-1-{5-[4-(6-{(3-chloropyridin-2-yl)[(3R)-piperidin-3-yl]carbamoyl}pyridin-3-yl)-1-methyl-1H-pyrazol-5-yl]-1H-tetrazol-1-yl}ethyl carbonate]: the IC50 was > 74 µM.

`CCOC(=O)O[C@@H](C)n1nnnc1-c1c(-c2ccc(C(=O)N(c3ncccc3Cl)[C@@H]3CCCNC3)cc2)cnn1C` [Example 6, ethyl (S)-1-{5-[1-methyl-4-(4-{(3-chloropyridin-2-yl)[(3R)-piperidin-3-yl]carbamoyl}phenyl)-1H-pyrazol-5-yl]-1H-tetrazol-1-yl}ethyl carbonate] showed an IC50 of 10.3 µM.

`CCOC(=O)O[C@@H](C)n1nnnc1-c1c(-c2ccc(C(=O)N(c3ncccc3C)[C@@H]3CCCNC3)cc2F)cnn1C` [Example 8, ethyl (S)-1-{5-[4-(4-{(3-methylpyridin-2-yl)[(3R)-piperidin-3-yl]carbamoyl}-2-fluorophenyl)-1-methyl-1H-pyrazol-5-yl]-1H-tetrazol-1-yl}ethyl carbonate] yielded an IC50 of 11 µM.

Consider `CCOC(=O)O[C@@H](C)n1nnnc1-c1c(-c2ccc(C(=O)N(c3ncccc3Cl)[C@@H]3CCCNC3)cc2F)cnn1C` [Example 7, ethyl (S)-1-{5-[4-(4-{(3-chloropyridin-2-yl)[(3R)-piperidin-3-yl]carbamoyl}-2-fluorophenyl)-1-methyl-1H-pyrazol-5-yl]-1H-tetrazol-1-yl}ethyl carbonate], for which the IC50 turned out to be 13.4 µM.

For the molecule `CCOC(=O)O[C@H](C)n1nnnc1-c1c(-c2ccc(C(=O)N(c3ncccc3C)[C@@H]3CCCNC3)cc2)cnn1C` [Example 5b, ethyl (R)-1-{5-[1-methyl-4-(4-{(3-methylpyridin-2-yl)[(3R)-piperidin-3-yl]carbamoyl}phenyl)-1H-pyrazol-5-yl]-1H-tetrazol-1-yl}ethyl carbonate], it took 6.4 µM to reach half-maximal inhibition (IC50).

As for `Cn1ncc(-c2ccc(C(=O)N(c3ncccc3Cl)[C@@H]3CCCNC3)cc2F)c1-c1nn[nH]n1` [Example 3, N-(3-chloropyridin-2-yl)-3-fluoro-4-[1-methyl-5-(2H-tetrazol-5-yl)-1H-pyrazol-4-yl]-N-[(3R)-piperidin-3-yl]benzamide], the IC50 turned out to be 2.8 µM.

Regarding `CCOC(=O)O[C@@H](C)n1nnnc1-c1c(-c2ccc(C(=O)N(c3ncccc3C)[C@@H]3CCCNC3)nc2)cnn1C` [Example 9, ethyl (S)-1-{5-[1-methyl-4-(6-{(3-methylpyridin-2-yl)[(3R)-piperidin-3-yl]carbamoyl}pyridin-3-yl)-1H-pyrazol-5-yl]-1H-tetrazol-1-yl}ethyl carbonate], 58.9 µM corresponded to half-maximal inhibition (IC50). Against the preceding molecule, the IC50 is about 21-fold higher.

The values are drawn from patent publication US20160102074A1, “SUBSTITUTED AMIDE COMPOUNDS” (PFIZER INC., priority 2014, published 2016).
